Results: patent US20110070232A1, “Combination Therapy with an Antitumor Alkaloid” (Pharma Mar, S.A., priority 2008, published 2011)
≈ marks a conversion by molar mass, not a printed value.

Columns and labels:
Assay in all cases: IC50 determination, MTS assay, 72 h (Example 1)
Assay type in all cases: cell-based
Conditions in all cases: 72 hours of drug exposure
[1] = test system: AGS human gastric carcinoma cell line
Protocol: (§1) The human gastric carcinoma cell lines selected for this assay were the following: Hs746T, HGC-27, and AGS cell lines. Hs746T and AGS cell lines were grown in Dulbecco's modified Eagle's medium (DMEM) supplemented with 10% Fetal Bovine Serum (FBS), 1.5 g/L sodium bicarbonate, 4.5 g/L glucose and 4 mM L-glutamine. HGC-27 cell line was grown in Iscove's modified Dulbecco's medium (IMDM) supplemented with 20% FBS and 2 mM L-glutamine.
(§2) The day before plating, the cells were fed with fresh, complete growth media. On the harvest (plating) day, cells were counted by Trypan Blue exclusion staining method.
(§3) Cells were harvested and seeded in 96 well microtiter plates at 10,000 cells density in 150 μL of media and incubated for 24 hours to allow the cells to attach before drug addition. To collect reference data, the MTS assay was done on untreated cells at time 0 (after incubation of cells for 24 hours).
(§4) The cytotoxic effect was measured by the MTS Assay (Tetrazolium), which is a colorimetric method for determining the number of viable cells. After the incubation period (24 hours for the Day 0 plate and 72 hours for the Test and Control plates), 25 μL of MTS+PMS solution was added to each microtiter well and incubated for 4 hours at 37° C. Plates were then removed from incubator and placed on plate shaker for 5 minutes (covered with aluminum foil for protection from light). Optical densities were read at 490 nm on spectrophotometer plate reader.
(§5) IC50 values were calculated from an average of two to four assays for each of the test agents.

[2] = test system: HGC-27 human gastric carcinoma cell line
Protocol: as §1, §2, §3, §4, §5

[3] = test system: Hs746T human gastric carcinoma cell line
Protocol: as §1, §2, §3, §4, §5

Structure (SMILES): CCc1c2c(nc3ccc(O)cc13)-c1cc3c(c(=O)n1C2)COC(=O)[C@]3(O)CC [SN38, 7-ethyl-10-hydroxycamptothecin]
- IC50 [1]: 0.00549 µg/mL (≈ 0.014 µM)
- IC50 [2]: 0.246 µg/mL (≈ 0.627 µM)
- IC50 [3]: 0.0582 µg/mL (≈ 0.148 µM)
